Consider three molecules from patent publication US20170128564A1, “P[…] FROM gp41, A VACCINE COMPOSITION COMPRISING SAID POLYPEPTIDE, AND USES FOR TREATING AN INFECTION BY AN HIV VIRUS IN AN INDIVIDUAL” (INSTITUT NATIONAL DE LA SANTE ET DE LA RECHERCHE MEDICALE …, priority 2003, published 2017).

The subject of series [1] is NKp44L expression on purified CD4+ T cells. Type of series: cell-based, human. To be noted: preliminary experiment with the 6-mers peptide.
For another series, the system named is CD4+ T cells. In words: NK cytotoxicity 51Cr-release assay, treated CD4+ T cells as targets of activated autologous purified NK cells. It is filed as cell-based, human. The procedure: NK lines were generated from PBMC, and then purified using the StemSep cell separation system and the NK cell enrichment antibody cocktail (StemCell technologies). NK purified cells were cultured in MyeloCult H5100 medium (StemCell technologies) supplemented with 100 units rhlL-2 (Boheringer). The purity of these preparations was evaluated by flow cytometry after staining with anti-CD3 (BD), anti-CD56 (BD), anti-NKp44, and anti-NKp46 mAbs.
The cytololytic activity was assayed in 4-h ^51Cr-release assay as previously described. Briefly, the target cells were labeled for 2-h at 37° C. with 100 μCi per 10^6 cells Na^51Cr (Amersham), and washed twice with culture medium. The target cells were then distributed in round-bottomed 96-well microtiter plates (4×10^3 cells per well), and the effector cells were added at several E/T ratio. The plates were incubated 4-h at 37° C. The supernatant were then collected and ^51Cr-release was measured in a gamma counted. In experiments in which Abs were included, these were added to final concentration of 20 μg/ml. The relative specific ^51Cr-release was calculated as previously described. Values for spontaneous ^51Cr-release, which are deducted in the calculation, were between 10 and 20% of the total incorporated radioactivity. The results are presented after subtraction of the nonspecific lysis obtained with control targets. […]

For a further series, the target named is T1, NKp44L (Homo sapiens, UniProt Q8IZD2).
T1 construct: endogenous in cells; host or cells: U2 cells, uninfected or chronically infected with HIV-1 Sf2
T1 sequence (Q8IZD2 1-1168 isoform Q8IZD2-8 K496E/T516A): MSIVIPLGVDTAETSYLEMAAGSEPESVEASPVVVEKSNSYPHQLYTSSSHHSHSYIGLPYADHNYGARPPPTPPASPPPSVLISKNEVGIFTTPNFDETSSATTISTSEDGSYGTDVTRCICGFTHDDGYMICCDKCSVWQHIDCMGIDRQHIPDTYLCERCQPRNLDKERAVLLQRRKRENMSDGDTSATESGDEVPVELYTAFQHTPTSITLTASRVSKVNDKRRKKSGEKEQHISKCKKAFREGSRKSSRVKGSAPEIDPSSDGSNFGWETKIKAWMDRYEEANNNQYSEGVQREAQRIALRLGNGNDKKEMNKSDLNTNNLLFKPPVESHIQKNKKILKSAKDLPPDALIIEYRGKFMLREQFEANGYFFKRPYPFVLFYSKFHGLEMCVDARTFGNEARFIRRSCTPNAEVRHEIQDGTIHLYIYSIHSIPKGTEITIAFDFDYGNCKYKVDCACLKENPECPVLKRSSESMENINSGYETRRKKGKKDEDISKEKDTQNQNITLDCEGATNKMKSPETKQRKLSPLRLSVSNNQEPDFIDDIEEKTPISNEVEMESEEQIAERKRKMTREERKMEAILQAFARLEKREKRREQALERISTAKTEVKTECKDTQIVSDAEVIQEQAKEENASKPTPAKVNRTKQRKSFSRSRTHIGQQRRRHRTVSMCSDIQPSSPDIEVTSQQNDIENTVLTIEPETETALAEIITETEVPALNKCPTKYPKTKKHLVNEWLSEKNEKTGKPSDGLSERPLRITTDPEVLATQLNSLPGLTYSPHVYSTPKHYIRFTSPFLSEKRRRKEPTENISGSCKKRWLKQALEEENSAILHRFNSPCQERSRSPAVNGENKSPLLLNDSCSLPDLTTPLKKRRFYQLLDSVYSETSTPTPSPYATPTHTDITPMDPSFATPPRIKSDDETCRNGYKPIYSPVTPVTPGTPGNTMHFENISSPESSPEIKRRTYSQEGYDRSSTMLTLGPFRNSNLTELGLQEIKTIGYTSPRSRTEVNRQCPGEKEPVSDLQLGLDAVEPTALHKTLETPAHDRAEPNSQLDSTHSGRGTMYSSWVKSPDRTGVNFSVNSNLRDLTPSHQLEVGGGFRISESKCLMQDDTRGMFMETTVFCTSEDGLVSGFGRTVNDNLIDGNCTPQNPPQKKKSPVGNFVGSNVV
Put plainly: Staining of U2 cells with #7.1 mAb, flow cytometry, and competition with NCR-Ig fusion proteins. It is filed as binding. As to conditions: HIV-1-infected U2 cells previously stained with fusion protein (FIG. 8C). The procedure: 8B) Cell surface expression of NKp44L detected with #7.1 mAb. Uninfected (UI) and HIV-1-infected (Sf2) U2 cells were incubated with 1 μg/ml of #7.1 mAb (black line) or with the IgM isotype control (dotted line) and analyzed by flow cytometry.
8C) #7.1 mAb inhibits NKp44-Ig binding. HIV-1-infected U2 cells that had previously been stained with either […] of NKp44-Ig fusion protein (lower panel; black line) or control NKp46-Ig fusion protein (upper panel; black line) were incubated with #7.1 mAb (gray line) or IgM isotype control (dotted line) for 1!h at 4° C. and washed twice in 1% PBS-BSA. The cells were then analyzed by flow cytometry. Percentage of cells expressing NKp44L, after NCR-Ig incubation, is noted.
Anti-NKp44 (44/8; IgG1) and anti-NKp44L mAb (#7.1; IgM) were obtained from 5-weekold BalB/c mice immunized with the ClonaCell-HY hybridoma cloning kit, according to the manufacturer's instructions (StemCell Technologies Inc.). The anti-mouse-peroxidase hybridoma screening reagent (Roche) and ELISA were used to select antibodies. Anti-NKp44 (44/8) mAb was prepared by immunizing the mice with NKp44-Ig protein, after specific deletion of the IgG1 human Fc fragment. […] All hybridomas were analyzed with 51Cr cytotoxic assays with untreated or acid-treated 721.221 cells as targets, and the specificity of the anti-NKp44 hybridoma was analyzed by ELISA with different fusion proteins. […]
(A flow cytometer gives signals particle by particle.)

No end group written: not given here.

For the molecule SWSNKS [NH2-SWSNKS-COOH, SWSNKS], the “cell surface expression of NKp44L” value in series [1] is “any increased”. Further, the NK cytotoxic activity result in the series with CD4+ T cells (preliminary experiment with the 6-mers peptide) is reported as “any increased”.

PWASNASWSNKSLDDIW [gp41-C146]: the NK cytotoxic activity entry in the series with CD4+ T cells (single peptides of pool C 5 μg/ml, two days, E/T ratio 40/1 (FIG. 4A)) is recorded as “strongly increased”.

B1: NKp44-Ig fusion protein: NKp44-Ig NCR-Ig fusion protein (protein)
chain: QSKAQVLQSVAGQTLTVRCQYPPTGSLYEKKGWCKEASALVCIRLVTSSKPRTMAWTSRFTIWDDPDAGFFTVTMTDLREEDSGHYWCRIYRPSDNSVSKSVRFYLVVSPASASTQTPWTPRDLVSSQTQTQSCVPPTAGARQAPESPSTIPVPSQPQNSTLRPGPAAPIA
modifications: left off: a dimerising Fc or GST
Turning to B1, the “effect of NCR-Ig fusion protein on #7.1 mAb staining” value with NKp44L is on record as “Inhibition”.
